From patent publication US20260001862A1, “QUINOXALINEDIONE AND PYRIDO[2,3-B]PYRAZINE-2,3-DIONE B CELL LYMPHOMA 6 (BCL6) DEGRADERS AND USES THEREOF” (DANA-FARBER CANCER INSTITUTE, INC., priority 2022, published 2026)

Target: T1, Endogenous BCL6 (Homo sapiens, UniProt P41182)
T1 construct: Endogenous BCL6 was tagged with the 11-amino acid SmBiT through CRISPR/Cas9 gene editing; endogenous in cells; host or cells: SU-DHL-4 (CRISPR/Cas9 knock-in single cell clone)
Experiment: HiBiT cellular degradation assay in SU-DHL-4 cells
Type: cell-based
Conditions: 24 hours of compound treatment, concentration to reach 50% degradation
Method: DC50 (concentration to reach 50% degradation) values were determined from a cellular degradation assay (HiBiT, Promega™) in Su-DHL-4 cells (Table 1). Endogenous BCL6 was tagged with the 11-amino acid SmBiT through CRISPR/Cas9 gene editing and single cell clone selection. After 24 hours of compound treatment, cells were lysed and incubated with LgBiT protein to reconstitute intact nanoluciferase. Substrate was then added and relative luciferase units were measured. Degradation levels for each treatment were taken as a percentage compared to the control, 100% DMSO (Prism).

SMILES | DC50
CNC(=O)CCn1c(=O)c(=O)n(C)c2ccc(Nc3nc(N4C[C@H](C)C[C@H](C)C4)ncc3Cl)cc21 [Compound 1, 3-(7-((5-chloro-2-((3S,5R)-3,5-dimethylpiperidin-1-yl)pyrimidin-4-yl)amino)-4-methyl-2,3-dioxo-3,4-dihydroquinoxalin-1(2H)-yl)-N-methylpropanamide] | 25 nM
C[C@@H]1CN(c2ncc(Cl)c(Nc3ccc4c(c3)n(CCC(=O)NC3CN(C)C3)c(=O)c(=O)n4C)n2)C[C@H](C)C1(F)F [Compound 8] | > 10000 nM
C[C@@H]1CN(c2ncc(Cl)c(Nc3ccc4c(c3)n(CCC(=O)NC3CCN(C)C3)c(=O)c(=O)n4C)n2)C[C@H](C)C1(F)F (stereo partly shown) [Compound 9] | 220 nM
C[C@@H]1CN(c2ncc(Cl)c(Nc3ccc4c(c3)n(CCC(=O)NCC3CN(C)C3)c(=O)c(=O)n4C)n2)C[C@H](C)C1(F)F [Compound 11] | 3100 nM
C[C@@H]1CN(c2ncc(Cl)c(Nc3ccc4c(c3)n(CCC(=O)NCC3CCN(C)C3)c(=O)c(=O)n4C)n2)C[C@H](C)C1(F)F (stereo partly shown) [Compound 12] | 1800 nM
C[C@@H]1CN(c2ncc(Cl)c(Nc3ccc4c(c3)n(CCC(=O)NCCN(C)C)c(=O)c(=O)n4C)n2)C[C@H](C)C1(F)F [Compound 18] | 450 nM
C[C@@H]1CN(c2ncc(Cl)c(Nc3ccc4c(c3)n(CCC(=O)NCCCN(C)C)c(=O)c(=O)n4C)n2)C[C@H](C)C1(F)F [Compound 19] | 500 nM
C[C@@H]1CN(c2ncc(Cl)c(Nc3ccc4c(c3)n(CCC(=O)NC3COC3)c(=O)c(=O)n4C)n2)C[C@H](C)C1(F)F [Compound 28] | 32 nM
C[C@@H]1CN(c2ncc(Cl)c(Nc3ccc4c(c3)n(CCC(=O)NC3CCOC3)c(=O)c(=O)n4C)n2)C[C@H](C)C1(F)F (stereo partly shown) [Compound 29] | 71 nM
C[C@@H]1CN(c2ncc(Cl)c(Nc3ccc4c(c3)n(CCC(=O)NCC3COC3)c(=O)c(=O)n4C)n2)C[C@H](C)C1(F)F [Compound 31] | 160 nM
C[C@@H]1CN(c2ncc(Cl)c(Nc3ccc4c(c3)n(CCC(=O)NCC3CCOC3)c(=O)c(=O)n4C)n2)C[C@H](C)C1(F)F (stereo partly shown) [Compound 32] | 150 nM
CNC(=O)Cn1c(=O)c(=O)n(C)c2ccc(Nc3nc(N4C[C@@H](C)C(F)(F)[C@@H](C)C4)ncc3Cl)cc21 [Compound 56, 2-(7-((5-chloro-2-((3R,5S)-4,4-difluoro-3,5-dimethylpiperidin-1-yl)pyrimidin-4-yl)amino)-4-methyl-2,3-dioxo-3,4-dihydroquinoxalin-1(2H)-yl)-N-methylacetamide] | 14 nM
C[C@@H]1CN(c2ncc(Cl)c(Nc3ccc4c(c3)n(CC(=O)NCCN(C)C)c(=O)c(=O)n4C)n2)C[C@H](C)C1(F)F [Compound 57] | 340 nM
C[C@@H]1CN(c2ncc(Cl)c(Nc3ccc4c(c3)n(CC(=O)NC3CN(C)C3)c(=O)c(=O)n4C)n2)C[C@H](C)C1(F)F [Compound 58] | 870 nM
C[C@@H]1CN(c2ncc(Cl)c(Nc3ccc4c(c3)n(CC(=O)NC3CCN(C)C3)c(=O)c(=O)n4C)n2)C[C@H](C)C1(F)F (stereo partly shown) [Compound 59] | 970 nM
C[C@@H]1CN(c2ncc(Cl)c(Nc3ccc4c(c3)n(CC(=O)NC3CCN(C)CC3)c(=O)c(=O)n4C)n2)C[C@H](C)C1(F)F [Compound 60] | 1120 nM
CNC(=O)C(C)(C)Cn1c(=O)c(=O)n(C)c2ccc(Nc3nc(N4C[C@@H](C)C(F)(F)[C@@H](C)C4)ncc3Cl)cc21 [Compound 68] | 100 nM
C[C@@H]1CN(c2ncc(Cl)c(Nc3ccc4c(c3)n(CCC(=O)NCC(C)(C)O)c(=O)c(=O)n4C)n2)C[C@H](C)C1(F)F [Compound 73] | 130 nM
CNC(=O)[C@H]1C[C@@H](n2c(=O)c(=O)n(C)c3ccc(Nc4nc(N5C[C@@H](C)C(F)(F)[C@@H](C)C5)ncc4Cl)cc32)C1 [Compound 75-1] | 290 nM
CNC(=O)[C@H]1C[C@H](n2c(=O)c(=O)n(C)c3ccc(Nc4nc(N5C[C@@H](C)C(F)(F)[C@@H](C)C5)ncc4Cl)cc32)C1 [Compound 75-2] | 100 nM

SMILES | DC50
CNC(=O)CCn1c(=O)c(=O)n(C)c2ccc(Nc3nc(N4C[C@H](CCN)C(F)(F)[C@H](C)C4)ncc3Cl)cc21 [Compound 80] | > 10000 nM
CNC(=O)CCn1c(=O)c(=O)n(C)c2ccc(Nc3nc(N4C[C@@H](CCN)C(F)(F)[C@@H](C)C4)ncc3Cl)cc21 [Compound 81] | 250 nM
CNC(=O)CCn1c(=O)c(=O)n(C)c2ccc(Nc3nc(N4C[C@@H](C)C(F)(F)[C@@H](N)C4)ncc3Cl)cc21 [Compound 82] | 84 nM
CNC(=O)CCn1c(=O)c(=O)n(C)c2ccc(Nc3nc(N4C[C@@H](N)C(F)(F)[C@@H](C)C4)ncc3Cl)cc21 [Compound 83] | 920 nM
CNC(=O)CCn1c(=O)c(=O)n(C)c2ccc(Nc3nc(N4C[C@@H](O)C(F)(F)[C@@H](C)C4)ncc3Cl)cc21 [Compound 85] | 94 nM
CNC(=O)Cn1c(=O)c(=O)n(C)c2ccc(Nc3nc(N4C[C@@H](C)C(F)(F)[C@@H](N)C4)ncc3Cl)cc21 [Compound 86] | 120 nM
CNC(=O)Cn1c(=O)c(=O)n(C)c2ccc(Nc3nc(N4C[C@@H](N)C(F)(F)[C@@H](C)C4)ncc3Cl)cc21 [Compound 87] | 230 nM
C[C@@H]1C[C@H](C)CN(c2ncc(Cl)c(Nc3ccc4c(c3)n(CC[C@@H](C)O)c(=O)c(=O)n4C)n2)C1 [Compound 107] | 47 nM
C[C@@H]1CN(c2ncc(Cl)c(Nc3ccc4c(c3)n(C[C@H]3C[C@H](O)C3)c(=O)c(=O)n4C)n2)C[C@H](C)C1F (stereo partly shown) [Compound 108] | 43 nM
C[C@@H]1CN(c2ncc(Cl)c(Nc3ccc4c(c3)n(C[C@H]3C[C@@H](O)C3)c(=O)c(=O)n4C)n2)C[C@H](C)C1F (stereo partly shown) [Compound 109] | 4 nM
C[C@@H]1CN(c2ncc(Cl)c(Nc3ccc4c(c3)n(CCC3(O)CC3)c(=O)c(=O)n4C)n2)C[C@H](C)C1F (stereo partly shown) [Compound 110] | 18 nM
C[C@@H]1CN(c2ncc(Cl)c(Nc3ccc4c(c3)n(CCC3(O)CCC3)c(=O)c(=O)n4C)n2)C[C@H](C)C1F (stereo partly shown) [Compound 111] | 34 nM
C[C@@H]1CN(c2ncc(Cl)c(Nc3ccc4c(c3)n(CCC3(O)COC3)c(=O)c(=O)n4C)n2)C[C@H](C)C1F (stereo partly shown) [Compound 112] | 25 nM
C[C@@H]1CN(c2ncc(Cl)c(Nc3ccc4c(c3)n(C[C@@H]3CNC(=O)O3)c(=O)c(=O)n4C)n2)C[C@H](C)[C@@H]1F [Compound 117] | 130 nM
C[C@@H]1CN(c2ncc(Cl)c(Nc3ccc4c(c3)n(C[C@@H]3COC(=O)N3)c(=O)c(=O)n4C)n2)C[C@H](C)[C@@H]1F [Compound 118] | 120 nM
C[C@@H]1CN(c2nc(Nc3ccc4c(c3)n(CCC3(O)CC3)c(=O)c(=O)n4C)c(Cl)cc2C#N)C[C@H](C)[C@@H]1F [Compound 119] | 13 nM
CNC(=O)CCn1c(=O)c(=O)n(C)c2ccc(Nc3nc(N4C[C@H](CCO)C(F)(F)[C@H](C)C4)c(C#N)cc3Cl)cc21 [Compound 120] | 1900 nM
CNC(=O)CCn1c(=O)c(=O)n(C)c2ccc(Nc3nc(N4C[C@@H](CCO)C(F)(F)[C@@H](C)C4)c(C#N)cc3Cl)cc21 [Compound 121] | 71 nM
C[C@@H]1CN(c2ncc(Cl)c(Nc3ccc4c(c3)n(CC[C@@H](C)O)c(=O)c(=O)n4C)n2)C[C@H](C)[C@@H]1F [Compound 122] | 19 nM
C[C@H](O)CCn1c(=O)c(=O)n(C)c2ccc(Nc3nc(N4C[C@@H](C)[C@@H](F)[C@@H](C)C4)ncc3Cl)cc21 [Compound 123] | 23 nM
